Paper PMC10329798 (Virology Journal, 2023)
Read-outs that look alike come from different tables or passages of the source.

Key:
[1] = biological target: T1, SARS-CoV-2 E protein (2-E) (Severe acute respiratory syndrome coronavirus 2, UniProt P0DTC4); assay: cell-based; type: biochemical
[2] = biological target: T1, SARS-CoV-2 E protein (2-E); assay: cell-based
SARS-CoV E protein (1-E) = settings: 1-E protein, cell viability assay; read-out: IC50, inhibition data from published 1-E protein; cited from earlier work
SARS-CoV-2 = settings: in vitro, Vero-h/SLAM cells; cited from earlier work
[3] = read-out: IC50, cell viability assay, 2-E protein
[4] = read-out: IC50, patch-clamp electrophysiology, 2-E

T1 sequence (P0DTC4 whole entry): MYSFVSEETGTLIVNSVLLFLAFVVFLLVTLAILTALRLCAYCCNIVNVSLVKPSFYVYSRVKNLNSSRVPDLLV

Q: Which “Concentration with cytotoxic effects / onset of cell toxicity” value (HEK293 cells; human) does the source give for CC1=C[C@H]2C(=O)O[C@H]3C[C@@H](C/C=C(\C)C[C@@H](C)/C=C/C=C4\CO[C@H]([C@@H]1O)[C@@]42O)O[C@@]1(CC[C@H](C)[C@@H](C)O1)C3 [milbemycin] here?
A: ~ 10 µM

Q: And the IC50 [1]?
A: 2.21 ± 0.65 nM

Q: For NC12CC3CC(CC(C3)C1)C2 [amantadine], which IC50 [2, 3] is on record?
A: 89000 ± 27000 nM

Q: What about the “Concentration with cytotoxic effects / onset of cell toxicity” value (HEK293 cells) of the same compound?
A: not cytotoxic

Q: And the IC50 [1, 4]?
A: 24.1 ± 6.5 nM

Q: And the IC50 (SARS-CoV E protein (1-E))?
A: 77000 ± 13000 nM

Q: With CC(N)C12CC3CC(CC(C3)C1)C2 (stereo not drawn) [rimantadine] as the compound, how does the IC50 [2] read?
A: 8900 ± 2200 nM

Q: What about the “Concentration with cytotoxic effects / onset of cell toxicity” value (HEK293 cells) of the same compound?
A: not cytotoxic

Q: What about the IC50 [1] of the same compound?
A: 3.6 ± 0.6 nM

Q: What about the IC50 (SARS-CoV E protein (1-E)) of the same compound?
A: 10900 ± 3300 nM

Q: With CCC(C)C1OC2(CCC1C)CC1CC(CC=C(C)C(O)C(C)C=CC=C3COC4C(O)C(C)=CC(C(=O)O1)C34O)O2 (stereo not drawn) [ivermectin aglycon] as the compound, how does the IC50 [1, 4] read?
A: 5 ± 1.3 nM

Q: Which IC50 [2, 3] does the source give for NC(N)=NC(=O)c1nc(Cl)c(N2CCCCCC2)nc1N [HMA, 5-(N,N-hexamethylene)amiloride] here?
A: 1500 ± 300 nM

Q: And the “Concentration with cytotoxic effects / onset of cell toxicity” value (HEK293 cells)?
A: > 10 µM

Q: What about the IC50 [1, 4] of the same compound?
A: 1.9 ± 0.3 nM

Q: What about the IC50 (SARS-CoV E protein (1-E)) of the same compound?
A: 2600 ± 400 nM

Q: What does the source list for CC1=C[C@H]2C(=O)O[C@H]3C[C@@H](C/C=C(\C)C[C@@H](C)/C=C/C=C4\CO[C@H]([C@@H]1O)[C@@]42O)O[C@]1(C3)C[C@H](O)[C@H](C)[C@@H](/C(C)=C/C(C)C)O1 [nemadectin]?
A: Concentration with cytotoxic effects / onset of cell toxicity (HEK293 cells; human): 2 µM; IC50, patch-clamp electrophysiology, 2-E [1]: not active; Inhibition of 2-E protein-mediated currents ([1]; any of the tested concentrations): did not observe inhibition

Q: With ivermectin as the compound, how does the “Reduction in SARS-CoV-2 viral RNA” value (SARS-CoV-2) read?
A: 5000 fold

Q: What about the “Inhibition of the 2-E protein in the cell viability assay” value [2] of the same compound?
A: showed inhibiting effects

Q: And the IC50 [1, 4]?
A: 0.88 ± 0.1 nM
